System: P. methanolica cells (strain CBS6515, UV-mutagenized)
Assay: Nystatin enrichment for auxotrophic mutants; titering of colony forming units versus control cells
Settings: 1 mg nystatin added to remainder (about 450 ml) of 500 ml culture in minimal broth with 5 g/L ammonium sulfate, one additional hour with shaking, versus untreated control cells
Method: Large-scale mutagenesis was then carried out using a 2-second UV exposure to provide about 20% killing. Cells were plated at approximately 10^4 cells/plate onto eight YEPD plates that were supplemented with 100 mg/L each of uracil, adenine, and leucine, which were added to supplement the growth of potential auxotrophs having the cognate deficiencies. Following UV exposure the plates were wrapped in foil and incubated overnight at 30° C. The following day the colonies on the plates (~10^5 total) were resuspended in water and washed once with water. An amount of cell suspension sufficient to give an OD600 of 0.1-0.2 was used to inoculate 500 ml of minimal broth made with yeast nitrogen base without amino acids or ammonia, supplemented with 1% glucose and 400 μg/L biotin. The culture was placed in a 2.8 L baffled Bell flask and shaken vigorously overnight at 30° C. The following day the cells had reached an OD600 of ~1.0-2.0. The cells were pelleted and resuspended in 500 ml of minimal broth supplemented with 5 g/L ammonium sulfate. The cell suspension was placed in a 2.8 L baffled Bell flask and shaken vigorously at 30° C. for 6 hours. […] The cultures were incubated with shaking for an additional hour. The control and nystatin-treated cells were then harvested by centrifugation and washed with water three times. […]

## C[C@@H]1[C@H](O)[C@@H](C)/C=C/C=C/CC/C=C/C=C/C=C/C=C/C(O[C@H]2O[C@H](C)[C@@H](O)[C@H](N)[C@@H]2O)CC2O[C@](O)(CC(O)C(O)CCC(O)CC(O)CC(O)CC(=O)O[C@H]1C)CC(O)C2C(=O)O (stereo partly shown) [nystatin]
  decrease in the number of viable cells (colony forming units), factor: 10^4
